# From patent publication US10596166B2, “Combination composition comprising huperzine” (priority 2015, dated 2020)
# Where two headings read alike, the source gives them in different places.
# Experiments:
# [1] = test system: nerve/muscle co-culture injured by glutamate; test: glutamate toxicity on nerve/muscle co-culture (NMJ area, neurite network); format: cell-based, human muscle, rat spinal cord explants; conditions: glutamate 60 μM, 20 min
# Experimental: Human muscle (promocell, Batch: 3061107) was prepared according to a previously described method from portions of a biopsy from a healthy subject (Braun et al., (1996) J. Neurol Sci. 136: 17-23). The human muscle cell line was established from dissociated cells (21 000 cells per wells), plated in gelatin-coated 0.1% (Sigma, Batch: 051M0012V) in water on 48 wells plate (greiner, Batch: E13111ME) and grows in a proliferation medium consisting of mix of 62% of MEM medium (PAN, Batch: 2761113) and 25% of M199 medium (PAN, Batch: 6720314) supplemented with glutamine 2 mM (PAN, Batch: 8150713), human insulin 10 μg/ml (PAN, Batch: 1481013), Human recombinant Epidermal growth factor 10 ng/ml (EGF, GIBCO, Batch: 1291552A), human recombinant Fibroblast growth factor basic 2 ng/ml (bFGF, PAN, Batch: H080113), foetal calf serum 10% (FCS, GIBCO, Batch: 41Q7218K) and 2% of Penicillin 10.000 U/ml and Streptomycin 10.000 μg/ml (PS, PAN, Batch: 1451013). The medium was changed every 2 days. Five days after the start of culture, immediately after satellite cell fusion, whole transverse slices of 13-day-old rat Wistar embryos (Janvier, France) spinal cords with 4 dorsal root ganglia (DRG) attached are placed on the muscle monolayer (one explant per well in the central area). DRG are necessary to achieve a good ratio of innervation. Innervated cultures were maintained in a mixed (67%/25%) medium composed of MEM and medium 199, supplemented with 5% FCS, insulin 5 μg/ml, glutamine 2 mM and 2% PS. After 24 h of co-culture, neurites were observed growing out of the spinal cord explants. These neurites made contacts with myotubes and induced the first contractions after ˜8 days. Quickly thereafter, innervated muscle fibres located in the proximity to the spinal cord explants, were virtually continuously contracting. Innervated fibres were morphologically and spatially distinct from the non-innervated ones and could easily be distinguished from them.
# On day 27, co-cultures were pre-incubated 1 hour before glutamate application with test compounds (different concentrations) tested alone or in a mixture of the 3 compounds.
# One hour after HA, CA or FA Compounds and mixture (HA/CA/FA) incubation, glutamate was added to a final concentration of 60 μM diluted in control medium still in presence of 3 compounds or mix of compounds for 20 min.
# After 20 min injuries, co-cultures were washed and individual test compounds and mixture were added for an additional 48 h.
# After 48 h, the cocultures were prepared for end points evaluation (see below).
# After 48H of intoxication, cells were incubated with 500 nM α-bungarotoxin coupled with Alexa 488 (Molecular probes, Batch: 1434893) during 15 min in culture innervations medium at 37° C. to detect NMJ. After 2 washing in PBS (Pan Biotech, Batch: 7560414), cells were fixed by a solution of 4% of paraformaldehyde (Sigma Aldrich, Batch: SLBF7274V) in PBS, pH=7.3 for 20 min at room temperature.
# The cells were washed 2 times in PBS and then permeabilized and non-specific sites were blocked with a solution of PBS containing 0.1% of saponin (Sigma-Aldrich, Batch: BCBJ8417V) and 1%0 FCS (Gibco, Batch: 41F0423K) for 15 min at room temperature, co-cultures were incubated with a mouse monoclonal anti-neurofilament 200 KD antibody (NF, Sigma Aldrich, Batch: 053M4756) at the dilution of 1/400 in PBS containing 1% FCS, 0.1% saponin, for 2 h at room temperature. Antibody against NF stained the axon of motor neuron. […] Nuclei of neurons were labeled by Hoechst solution, a nuclear fluorescent marker at […] in the same solution (Hoechst solution, SIGMA, batch: 011M4004V).
# The NMJ mean size (area) of NMJs and the total length of neurite were assessed under the experimental conditions described above (see Combes et al., 2015). For each condition, 20 pictures per well were taken in the center area using ImageXpress (Molecular device) with 10× magnification. All images were taken under the same conditions. […]
# [2] = test system: primary cortical neurons injured by Aβ; test: Aβ-peptide toxicity on primary cortical neurons (neuron survival, neurite network); format: cell-based, rat; conditions: Aβ 20 μM, 24 h
# Experimental: The present study used an in vitro model of Alzheimer's disease established by Callizot et al. [2013, already cited], using Aβ-peptide solution containing Aβ-oligomers and permitting to reproduce essential neuropathological features of Alzheimer's disease.
# The Aβ1-42-preparation was obtained following the procedure described by Callizot et al. [2013, already cited]. Briefly, Aβ1-42 peptide was dissolved in the defined culture medium mentioned above, devoid of serum, at an initial concentration of 40 μmol/liter. This solution was gently agitated for 3 days at 37° C. in the dark and immediately used after being diluted in culture medium to the concentrations used.
# On day 11 of culture, HA, CA, FA and mixtures thereof were solved and diluted in culture medium and then pre-incubated with cortical neurons 1 hour before the Aβ1-42-peptide application. Aβ1-42-preparation was then added to a final concentration of 20 μM diluted in control medium.
# After 24 hours of Aβ-intoxication, the cultures were fixed and immunolabeled and the neuron survival and the neurite network length were assessed as described in the above example.
# [3] = test system: Acetylcholinesterase (AChE)
# Experimental: Test compounds alone or in association in mixture were solved at different concentrations in medium and then pre-incubated with kit of measure AchE (Promega, France).
# Test compounds alone or in association in the NSP01-001-E001 prepared according to example 4 were solved at different concentrations in medium and then pre-incubated with kit of measure AchE (Promega, France).
# Kit achetylcholinesterase (Abcam ref ab138871) was used. […] A 10-minutes incubation time was applied. The absorbance was assessed at 410 nm.
# The activity of the AchE was evaluated versus an AchE activity standard curve.
# Data were expressed in percentage of control conditions (no compound=100%). All values were expressed as mean+/−SEM (s.e.mean) (n=6 wells per condition per culture). Graphs and statistical analyses on the different conditions (ANOVA followed by PLSD Fisher's test when allowed, were performed using GraphPad Prism software version 5.0).
# [4] = test system: Alzheimer's disease patients; conditions: particularly at a daily dose of 300-500 μg; cited from earlier work
compound,measurement,setting,value
"O=C(O)/C=C/c1ccc(O)c(O)c1 [CA, caffeic acid]",neurite network (area of innervation),[1]; CA added 1 h before glutamate,slight protection
same,neurite network (area of innervation),[1]; CA highest dose (5 nM),significance was observed
same,NMJ area (mean size),[1]; CA low concentrations,unable to protect
same,NMJ area (mean size),[1]; only at the highest dose (5 nM),able to protect
same,neuron survival,[2]; 500 pM and below,no effect
same,neurite network,[2]; even at lower concentrations,Protective effect
same,neuron survival,[2]; from 5 nM up to 5 μM,significantly protect
same,inhibition of AChE,[3]; 50 pM,~8%
"COc1cc(/C=C/C(=O)O)ccc1O [FA, ferulic acid]",NMJ area (mean size),[1]; FA lowest and highest concentrations,inactive
same,NMJ area (mean size),[1]; FA only at 100 nM,able to protect
same,neurite network (area of innervation),[1]; highest dose tested (10 μM),moderate effect
same,neurite network,[2]; 10 and 100 μM,significant effect
same,neuron survival,[2]; whatever the concentration tested,not able to protect
same,inhibition of AChE,[3]; 100 pM,~8%
"C/C=C1\[C@H]2C=C(C)C[C@]1(N)c1ccc(=O)[nH]c1C2 [HA, huperzine A, reference compound]",NMJ area (mean size),[1]; HA 100 nM,significance was observed
same,neurite network (area of innervation),"[1]; HA 100 nM, without reaching the significance",slight neuroprotection
same,NMJ area (mean size),"[1]; HA, all concentrations tested",slight protective effect
same,neurite network (area of innervation),"[1]; HA, all concentrations tested",no neuronal protective effect
same,neuron survival,"[2]; HA, all concentrations",not able to significantly protect
same,tolerability and benefit,[4],well-tolerated and beneficial
